Legend:
human A2A receptors = human A2A receptors (Homo sapiens (Human), UniProt P29274); test: A2A antagonism in cAMP cell-based assay (LANCE cAMP, HEK293); conditions: HEK293 cells expressing human A2A receptor
Summary of the method: (§1)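 HEK293 cells expressing human A2A or A2B, in HBSS/5 mM HEPES/200 nM rolipram, were preincubated with compound (0.5–10,000 nM, 0.25% DMSO) 30 min at 37° C. Adenosine was then added from 300 nM (A2A) or 600 nM (A2B) solution for 30 min.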

human A2B receptors = human A2B receptors (Homo sapiens (Human), UniProt P29275); test: A2B antagonism in cAMP cell-based assay (LANCE cAMP, HEK293); conditions: HEK293 cells expressing human A2B receptor; for A2B cAMP % Inh. @10000 nM: at 10000 nM
Summary of the method: as §1

human A2A receptors, sequence (P29274 whole entry): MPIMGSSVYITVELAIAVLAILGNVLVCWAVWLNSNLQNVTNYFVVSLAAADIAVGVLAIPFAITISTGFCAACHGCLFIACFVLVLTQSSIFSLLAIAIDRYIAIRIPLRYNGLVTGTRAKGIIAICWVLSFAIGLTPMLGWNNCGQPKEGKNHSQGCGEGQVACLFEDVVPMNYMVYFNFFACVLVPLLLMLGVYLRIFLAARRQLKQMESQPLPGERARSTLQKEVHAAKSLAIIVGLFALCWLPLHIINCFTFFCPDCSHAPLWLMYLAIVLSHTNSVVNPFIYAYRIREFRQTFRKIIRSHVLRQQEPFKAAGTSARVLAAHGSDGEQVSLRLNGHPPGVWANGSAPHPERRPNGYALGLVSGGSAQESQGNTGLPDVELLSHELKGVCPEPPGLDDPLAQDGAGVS
human A2B receptors, sequence (P29275 whole entry): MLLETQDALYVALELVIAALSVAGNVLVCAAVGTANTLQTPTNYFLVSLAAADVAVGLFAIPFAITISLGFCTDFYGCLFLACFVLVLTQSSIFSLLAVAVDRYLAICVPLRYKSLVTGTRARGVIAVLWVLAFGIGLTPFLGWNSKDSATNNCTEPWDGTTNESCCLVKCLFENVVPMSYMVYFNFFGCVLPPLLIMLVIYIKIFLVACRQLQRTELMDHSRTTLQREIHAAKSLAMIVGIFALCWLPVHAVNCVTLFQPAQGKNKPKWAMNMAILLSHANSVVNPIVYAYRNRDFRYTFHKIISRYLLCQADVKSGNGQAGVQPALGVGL

Row | SMILES | IC50 (human A2A receptors) | IC50 (human A2B receptors) | A2B cAMP % Inh. @10000 nM (human A2B receptors)
1 | Cc1nn(C(C)C(C)O)cc1N1CC(C)CC(c2nc3c4cc(F)cc(F)c4nc(N)n3n2)C1 (single isomer, unassigned) [Example 214, (2R,3R or 2S,3S)-3-(4-((3S,5R or 3R,5S)-3-(5-amino-7,9-difluoro-[1,2,4]triazolo[1,5-c]quinazolin-2-yl)-5-methylpiperidin-1-yl)-3-methyl-1H-pyrazol-1-yl)butan-2-ol] | 0.5 nM | 34.1 nM | –
2 | Cc1nn(C(C)C(C)O)cc1N1CC(C)CC(c2nc3c4cc(F)cc(F)c4nc(N)n3n2)C1 (single isomer, unassigned) [Example 215, (2S,3S or 2R,3R)-3-(4-((3S,5R or 3R,5S)-3-(5-amino-7,9-difluoro-[1,2,4]triazolo[1,5-c]quinazolin-2-yl)-5-methylpiperidin-1-yl)-3-methyl-1H-pyrazol-1-yl)butan-2-ol] | 0.4 nM | 27.5 nM | –
3 | Cc1c(N2CC(C)CC(c3nc4c5cc(F)cc(F)c5nc(N)n4n3)C2)cnn1C(C)C(C)O (single isomer, unassigned) [Example 216, (2S,3S or 2R,3R)-3-(4-((3R,5S or 3S,5R)-3-(5-amino-7,9-difluoro-[1,2,4]triazolo[1,5-c]quinazolin-2-yl)-5-methylpiperidin-1-yl)-5-methyl-1H-pyrazol-1-yl)butan-2-ol] | 1 nM | 160 nM | –
4 | Cc1c(N2CC(C)CC(c3nc4c5cc(F)cc(F)c5nc(N)n4n3)C2)cnn1C(C)C(C)O (single isomer, unassigned) [Example 217, (2R,3R or 2S,3S)-3-(4-((3R,5S or 3S,5R)-3-(5-amino-7,9-difluoro-[1,2,4]triazolo[1,5-c]quinazolin-2-yl)-5-methylpiperidin-1-yl)-5-methyl-1H-pyrazol-1-yl)butan-2-ol] | 1.1 nM | 161 nM | –
5 | Cc1c(N2CC(C)CC(c3nc4c5cc(F)cc(F)c5nc(N)n4n3)C2)cnn1C(C)C(C)O (single isomer, unassigned) [Example 218, (2R,3R or 2S,3S)-3-(4-((3S,5R or 3R,5S)-3-(5-amino-7,9-difluoro-[1,2,4]triazolo[1,5-c]quinazolin-2-yl)-5-methylpiperidin-1-yl)-5-methyl-1H-pyrazol-1-yl)butan-2-ol] | 236 nM | 5780 nM | –
6 | Cc1c(N2CC(C)CC(c3nc4c5cc(F)cc(F)c5nc(N)n4n3)C2)cnn1C(C)C(C)O (single isomer, unassigned) [Example 219, (2S,3S or 2R,3R)-3-(4-((3S,5R or 3R,5S)-3-(5-amino-7,9-difluoro-[1,2,4]triazolo[1,5-c]quinazolin-2-yl)-5-methylpiperidin-1-yl)-5-methyl-1H-pyrazol-1-yl)butan-2-ol] | 247 nM | – | 27% Inh.
7 | COc1cc(F)cc2c1nc(N)n1nc(C3CC(C)CN(c4cnn(C(C)C(C)O)c4C)C3)nc21 (single isomer, unassigned) [Example 220, (2S,3S or 2R,3R)-3-(4-((3R,5S or 3S,5R)-3-(5-amino-9-fluoro-7-methoxy-[1,2,4]triazolo[1,5-c]quinazolin-2-yl)-5-methylpiperidin-1-yl)-5-methyl-1H-pyrazol-1-yl)butan-2-ol] | 20.4 nM | – | 30% Inh.
8 | COc1cc(F)cc2c1nc(N)n1nc(C3CC(C)CN(c4cnn(C(C)C(C)O)c4C)C3)nc21 (single isomer, unassigned) [Example 221, (2R,3R or 2S,3S)-3-(4-((3R,5S or 3S,5R)-3-(5-amino-9-fluoro-7-methoxy-[1,2,4]triazolo[1,5-c]quinazolin-2-yl)-5-methylpiperidin-1-yl)-5-methyl-1H-pyrazol-1-yl)butan-2-ol] | 0.5 nM | 63 nM | –
9 | COc1cc(F)cc2c1nc(N)n1nc(C3CC(C)CN(c4cnn(C(C)C(C)O)c4C)C3)nc21 (single isomer, unassigned) [Example 222, (2R,3R or 2S,3S)-3-(4-((3S,5R or 3R,5S)-3-(5-amino-9-fluoro-7-methoxy-[1,2,4]triazolo[1,5-c]quinazolin-2-yl)-5-methylpiperidin-1-yl)-5-methyl-1H-pyrazol-1-yl)butan-2-ol] | 34.6 nM | 3280 nM | –

The next lines start with the values.

Row | IC50 (human A2A receptors) | IC50 (human A2B receptors) | A2B cAMP % Inh. @10000 nM (human A2B receptors) | SMILES
10 | 0.7 nM | 46 nM | – | COc1cc(F)cc2c1nc(N)n1nc(C3CC(C)CN(c4cnn(C(C)C(C)O)c4C)C3)nc21 (single isomer, unassigned) [Example 223, (2S,3S or 2R,3R)-3-(4-((3S,5R or 3R,5S)-3-(5-amino-9-fluoro-7-methoxy-[1,2,4]triazolo[1,5-c]quinazolin-2-yl)-5-methylpiperidin-1-yl)-5-methyl-1H-pyrazol-1-yl)butan-2-ol]
11 | 0.8 nM | 16.1 nM | – | COc1cc2nc(N)n3nc([C@@H]4CC[C@H](C)N(c5cnn([C@@H](C)[C@H](C)O)c5)C4)nc3c2cc1F (single isomer, unassigned) [Example 228, (2S,3S or 2R,3R)-3-(4-((2S,5R or 2R,5S)-5-(5-amino-9-fluoro-8-methoxy-[1,2,4]triazolo[1,5-c]quinazolin-2-yl)-2-methylpiperidin-1-yl)-1H-pyrazol-1-yl)butan-2-ol]
12 | 1 nM | 6.6 nM | – | COc1cc2nc(N)n3nc([C@H]4CC[C@@H](C)N(c5cnn([C@@H](C)[C@H](C)O)c5)C4)nc3c2cc1F (single isomer, unassigned) [Example 229, (2S,3S or 2R,3R)-3-(4-((2R,5S or 2S,5R)-5-(5-amino-9-fluoro-8-methoxy-[1,2,4]triazolo[1,5-c]quinazolin-2-yl)-2-methylpiperidin-1-yl)-1H-pyrazol-1-yl)butan-2-ol]
13 | 32.9 nM | 724 nM | – | COc1cc2nc(N)n3nc([C@H]4CC[C@@H](C)N(c5cnn([C@H](C)[C@@H](C)O)c5)C4)nc3c2cc1F (single isomer, unassigned) [Example 230, (2R,3R or 2S,3S)-3-(4-((2R,5S or 2S,5R)-5-(5-amino-9-fluoro-8-methoxy-[1,2,4]triazolo[1,5-c]quinazolin-2-yl)-2-methylpiperidin-1-yl)-1H-pyrazol-1-yl)butan-2-ol]
14 | 122 nM | 3840 nM | – | COc1cc2nc(N)n3nc([C@@H]4CC[C@H](C)N(c5cnn([C@H](C)[C@@H](C)O)c5)C4)nc3c2cc1F (single isomer, unassigned) [Example 231, (2R,3R or 2S,3S)-3-(4-((2S,5R or 2R,5S)-5-(5-amino-9-fluoro-8-methoxy-[1,2,4]triazolo[1,5-c]quinazolin-2-yl)-2-methylpiperidin-1-yl)-1H-pyrazol-1-yl)butan-2-ol]
15 | 1.3 nM | 12.7 nM | – | CC(O)C(C)n1cc(N2CC(c3nc4c5cc(F)cc(F)c5nc(N)n4n3)CCC2C)cn1 (single isomer, unassigned) [Example 232, (2S,3S or 2R,3R)-3-(4-((2S,5R or 2R,5S)-5-(5-amino-7,9-difluoro-[1,2,4]triazolo[1,5-c]quinazolin-2-yl)-2-methylpiperidin-1-yl)-1H-pyrazol-1-yl)butan-2-ol]
16 | 0.7 nM | 5.6 nM | – | CC(O)C(C)n1cc(N2CC(c3nc4c5cc(F)cc(F)c5nc(N)n4n3)CCC2C)cn1 (single isomer, unassigned) [Example 233, (2R,3R or 2S,3S)-3-(4-((2S,5R or 2R,5S)-5-(5-amino-7,9-difluoro-[1,2,4]triazolo[1,5-c]quinazolin-2-yl)-2-methylpiperidin-1-yl)-1H-pyrazol-1-yl)butan-2-ol]
17 | 46.8 nM | 1200 nM | – | CC(O)C(C)n1cc(N2CC(c3nc4c5cc(F)cc(F)c5nc(N)n4n3)CCC2C)cn1 (single isomer, unassigned) [Example 234, (2R,3R or 2S,3S)-3-(4-((2R,5S or 2S,5R)-5-(5-amino-7,9-difluoro-[1,2,4]triazolo[1,5-c]quinazolin-2-yl)-2-methylpiperidin-1-yl)-1H-pyrazol-1-yl)butan-2-ol]
18 | 439 nM | 4450 nM | – | CC(O)C(C)n1cc(N2CC(c3nc4c5cc(F)cc(F)c5nc(N)n4n3)CCC2C)cn1 (single isomer, unassigned) [Example 235, (2S,3S or 2R,3R)-3-(4-((2R,5S or 2S,5R)-5-(5-amino-7,9-difluoro-[1,2,4]triazolo[1,5-c]quinazolin-2-yl)-2-methylpiperidin-1-yl)-1H-pyrazol-1-yl)butan-2-ol]
19 | 1 nM | 5.1 nM | – | COc1cc2nc(N)n3nc(C4CCC(C)N(c5cnn(C(C)C(C)O)c5)C4)nc3c2cc1F (single isomer, unassigned) [Example 236, (2S,3R or 2R,3S)-3-(4-((2S,5R or 2R,5S)-5-(5-amino-9-fluoro-8-methoxy-[1,2,4]triazolo[1,5-c]quinazolin-2-yl)-2-methylpiperidin-1-yl)-1H-pyrazol-1-yl)butan-2-ol]
20 | 0.8 nM | 8.7 nM | – | COc1cc2nc(N)n3nc(C4CCC(C)N(c5cnn(C(C)C(C)O)c5)C4)nc3c2cc1F (single isomer, unassigned) [Example 237, (2R,3S or 2S,3R)-3-(4-((2S,5R or 2R,5S)-5-(5-amino-9-fluoro-8-methoxy-[1,2,4]triazolo[1,5-c]quinazolin-2-yl)-2-methylpiperidin-1-yl)-1H-pyrazol-1-yl)butan-2-ol]
21 | 21.8 nM | 2440 nM | – | COc1cc2nc(N)n3nc(C4CCC(C)N(c5cnn(C(C)C(C)O)c5)C4)nc3c2cc1F (single isomer, unassigned) [Example 238, (2S,3R or 2R,3S)-3-(4-((2R,5S or 2S,5R)-5-(5-amino-9-fluoro-8-methoxy-[1,2,4]triazolo[1,5-c]quinazolin-2-yl)-2-methylpiperidin-1-yl)-1H-pyrazol-1-yl)butan-2-ol]
